Measured values as given in patent publication US20150073050A1 (Amarin Pharmaceuticals Ireland Limited, priority 2013, published 2015).

Experiment: Safety evaluation in the drug-drug interaction study (adverse events, clinical laboratory, vital signs, physical examination)
Assay type: in vivo, human
Conditions: omeprazole 40 mg with ethyl eicosapentaenoate 4 g/day, healthy subjects
From the text: Safety evaluations consisted of monitoring adverse events (AEs), clinical laboratory measurements (chemistry, hematology, and urinalysis), vital signs (systolic and diastolic blood pressure, heart rate, respiratory rate and oral body temperature), and physical examination findings.

Row | Structure (SMILES) | Premature discontinuation due to an adverse event | Safety and tolerability of concomitant administration | Serious adverse events
1 | CC/C=C\C/C=C\C/C=C\C/C=C\C/C=C\CCCC(=O)OCC [ethyl eicosapentaenoate, all-cis eicosa-5,8,11,14,17-pentaenoic acid ethyl ester] | no subjects prematurely discontinued | safe and well-tolerated | No serious adverse events
2 | COc1ccc2[nH]c([S+]([O-])Cc3ncc(C)c(OC)c3C)nc2c1 (stereo not drawn) [Omeprazole, omeprazole] | no subjects prematurely discontinued | safe and well-tolerated | No serious adverse events
